Source: US12642783B2, “Method for treating vaso occlusive crises associated with Sickle cell disease” (Nicox SA, priority 2020, dated 2026)

Tests used:
vaso-occlusive crises = conditions: sickle cell disease; cited from earlier work
cGMP = cGMP levels after intravenous administration in Sickle Cell mouse model (thrombin challenge); assay type: in vivo, mice; conditions: for cGMP levels compared to thrombin alone or naproxen administration: Homozygous Sickle Cell transgenic mice, 15 mg/kg intravenous, p<0.01 (FIG. 2)
Description: (§1) This trial was conducted to assess the efficacy of 4-(nitrooxy)butyl-(2S)-2-(6-methoxy-2-naphthyl) propanoate (naproxcinod) to increase Nitrite (a precursor to NO), and cGMP in Homozygous Townes Sickle Cell transgenic mice.
(§2) Homozygous Sickle Cell transgenic mice were treated with either 4-(nitrooxy)butyl-(2S)-2-(6-methoxy-2-naphthyl) propanoate (naproxcinod) (15 mg/kg) or naproxen (15 mg/kg—as a control) or saline (as a vehicle control) by intravenous injection. After one hour, the mice were injected with thrombin (1 u/20 g) to induce platelet activation. Blood was drawn at […] after thrombin administration. Plasma nitrite levels were measured as a marker of nitric oxide bioavailability. cGMP levels were measured after addition of IBMX (3-Isobutyl-1-methylxanthine) (100 uM) to prevent cGMP degradation. Platelets were isolated and activation measured by surface expression of p-selectin.

Nitrite = experiment: Plasma nitrite levels after intravenous administration in Sickle Cell mouse model (thrombin challenge); assay type: in vivo; conditions: Homozygous Sickle Cell transgenic mice, 15 mg/kg intravenous, at one hour after thrombin (FIG. 1)
Description: as §1, §2

blood pressure = conditions: 3 pivotal trials, 2,734 patients with osteoarthritis of the hip or knee; cited from earlier work
[1] = system: osteoarthritis (OA) of the knee; conditions: human studies, OA of the knee patients; cited from earlier work
[2] = approved package insert (Novartis, 2019); cited from earlier work

## NC(=O)NO [Droxia, hydroxyurea]
vaso-occlusive crises
  frequency of vaso-occlusive crises: reduce the frequency

## COc1ccc2cc([C@H](C)C(=O)OCCCCO[N+](=O)[O-])ccc2c1 [naproxcinod, 4-(nitrooxy)butyl-(2S)-2-(6-methoxy-2-naphthyl) propanoate]
cGMP; at 30 minutes after thrombin
  cGMP levels compared to thrombin alone or naproxen administration: significantly increased
cGMP; at 60 minutes after thrombin
  cGMP levels compared to thrombin alone or naproxen administration: significantly increased
cGMP; Sickle cell animal model, summary statement
  cyclic guanosine monophosphate level (cGMP level): able to increase
Nitrite
  nitrite concentration compared to thrombin alone or naproxen administration: statistically greater
Blood pressure
  hypertensive burden induced by most NSAIDs: reduce some of the hypertensive burden
[1]
  management of the signs and symptoms of OA: clinical efficacy and safety

## NC(=O)CC[C@H](N)C(=O)O [Endari, L-glutamine]
vaso-occlusive crises
  frequency of vaso-occlusive crises: reduce the frequency

B1: crizanlizumab-tmca (antibody, chains of the INN, looked up, V domains shown)
VH: QVQLVQSGAEVKKPGASVKVSCKVSGYTFTSYDINWVRQAPGKGLEWMGWIYPGDGSIKYNEKFKGRVTMTVDKSTDTAYMELSSLRSEDTAVYYCARRGEYGNYEGAMDYWGQGTLVTVSS
VL: DIQMTQSPSSLSASVGDRVTITCKASQSVDYDGHSYMNWYQQKPGKAPKLLIYAASNLESGVPSRFSGSGSGTDFTLTISSLQPEDFATYYCQQSDENPLTFGGGTKVEIK
notes: FDA-approved drug for vaso-occlusive crises complication in sickle cell disease
vaso-occlusive crises
  frequency of vaso-occlusive crises: reduce the frequency
[2]
  incidence rate of arthralgia: 18%
  incidence rate of back pain: 15%
